# Assay results taken from BindingDB's records for doi:10.1021/jm00056a003 (Universit&#224, 1993).
# Target: L-type calcium channel (Felis catus)
# Assay: Inhibition of (-)-[3H]- D-888 binding to L-type calcium channels in kitten heart ventricle membranes
compound,measurement,value
"COc1ccc(CCN(C)C2CCCC(C(C#N)(c3ccc(OC)c(OC)c3)C(C)C)C2)cc1OC (stereo unspecified) [(RSR) 2-(3,4-Dimethoxy-phenyl)-2-(3-{[2-(3,4-dimethoxy-phenyl)-ethyl]-methyl-amino}-cyclohexyl)-3-methyl-butyronitrile]",IC50,260 nM
